The results in this text go back to patent US20260077055A1, “COMPOSITIONS OF POLYPLEXES AND SAPONINS” (SAPREME TECHNOLOGIES B.V., priority 2022, published 2026).

One test relates to EGFR+ A431 cells. Kind of test: Cell viability (MTS) after polyplex transfection of A431 cells. Type of test: cell-based. Here is the method:
Spectrophotometry: Concentrations were determined using either a Thermo Nanodrop 2000 spectrometer or Perkin Elmer Lambda 365 Spectrophotometer. DLS measurements: DLS measurements were performed on a Malvern Nano ZS (Malvern Instruments, U.K.), operating at 633 nm with a 173° scattering angle, at 25 or 37° C. DLS mean diameters were obtained from the intensity particle size distribution provided by Malvern Zetasizer Software. DLS histograms were obtained from the intensity particle size distributions. Zeta-potential: The zeta-potential values of the polyplexes were obtained by laser doppler anemometry (LDA), measuring the mean electrophoretic mobility (Malvern Zetasizer Nano ZS, Malvern Instruments, U.K.). Measurements were performed in 10 mM HEPES pH 7.1, 150 mM NaCl. TEM measurements: TEM measurements were performed on a JEOL JEM-1011 operated at 100 kV electron microscope, equipped with a camera S5 MegaView G2. A drop of a solution of polyplexes (0.1 mg/mL) was settled on a PELCO® TEM carbon type-B film copper grid and allowed to dry at room temperature for 1 h. Infrared Spectroscopy: FT-IR spectra were recorded on a Bruker Vertex 70v, equipped with a RockSolid interferometer, after preparing the samples (1-2 mg) as KBr pellets. Spectra were processed using OPUS 7.8 software (Bruker). NMR Spectroscopy: 1H NMR spectra were recorded on a 11.7 T Bruker DRX-500 spectrometer. Chemical shifts are reported in ppm (o units) downfield from the HOD residual solvent peak (CD3OD). Experiments were recorded acquiring 64-512 scans, with a pre-scan delay (d1) of 12 s, and an acquisition time (aq) of 4 s at 300 K. 13C NMR spectrum was recorder on a 9.39 T Varian Innova 400 spectrometer. MestReNova 14.2 software (Mestrelab Research) was used for spectra processing. Cell culture conditions and treatments: HEK293FT, A431, A2058, Neuro2A, Hepa1-6 and MDA-MB 468 were maintained in 10% FBS-supplemented DMEM medium (PAN-Biotech GmbH, or Lonza Group, Basel, Switzerland)+Pen/Strep at 37° C. with 5% CO2. […] SO1861-EMCH was conjugated into/onto these polyplexes or co-administrated at 966 or 4000 nM to the different cell lines in vitro (as indicated). For this, cells were seeded in a 96 well plate at 5.000-10.000 c/w in 100 μL/well and incubated overnight at 37° C. Before treatment, the mAb-SO1861 and polyplexes were diluted separately in DPBS (PAN-Biotech GmbH) to 10× the required final concentration. The cells received 80 μL/well fresh media, followed by 20 μL/well polyplex solution and 20 μL/well saponin solution. In particular, before K16-polyplex treatments, K16-polyplexes were formulated in 10 mM HEPES, incubated for 30 min at room temperature and then diluted with complete cell culture medium. The complete cell culture medium was exchanged against 100 μL transfection medium. For co-administration of SO1861-EMCH, the transfection medium was supplemented with 2 μg/mL (=966 nM) SO1861-EMCH. Control transfections were performed with Lipofectamine™ 3000 Transfection Reagent (Thermo Fisher Scientific) according to the manufacturer's instruction, using either […] or 100 ng plasmid and with a media change 4-5 hrs after transfection. […] After treatment, the cells were incubated for 72 hr at 37° C. before the cell viability was determined by a MTS-assay performed according to the manufacturer's instruction (CellTiter 96® AQueous One Solution Cell Proliferation Assay, Promega). […]

The test system of a further test is EGFR-A2058 cells. In words: Cell viability (MTS) after polyplex transfection of A2058 cells. Format: cell-based. The note with it: co-administered with PAMAM G5(PEG-N3)6.2 npSaporin polyplexes; 73 nM Cetuximab-SO1861 or 4 μM SO1861-EMCH; 72 h. The protocol:
Spectrophotometry: Concentrations were determined using either a Thermo Nanodrop 2000 spectrometer or Perkin Elmer Lambda 365 Spectrophotometer. DLS measurements: DLS measurements were performed on a Malvern Nano ZS (Malvern Instruments, U.K.), operating at 633 nm with a 173° scattering angle, at 25 or 37° C. DLS mean diameters were obtained from the intensity particle size distribution provided by Malvern Zetasizer Software. DLS histograms were obtained from the intensity particle size distributions. […] Infrared Spectroscopy: FT-IR spectra were recorded on a Bruker Vertex 70v, equipped with a RockSolid interferometer, after preparing the samples (1-2 mg) as KBr pellets. […] NMR Spectroscopy: 1H NMR spectra were recorded on a 11.7 T Bruker DRX-500 spectrometer. […] Experiments were recorded acquiring 64-512 scans, with a pre-scan delay (d1) of 12 s, and an acquisition time (aq) of 4 s at 300 K. 13C NMR spectrum was recorder on a 9.39 T Varian Innova 400 spectrometer. […] After treatment, the cells were incubated for 72 hr at 37° C. before the cell viability was determined by a MTS-assay performed according to the manufacturer's instruction (CellTiter 96® AQueous One Solution Cell Proliferation Assay, Promega). […]

As for `CC(=O)OC1C(C)OC(OC2C(C)OC(OC(=O)[C@]34CCC(C)(C)CC3C3=CCC5[C@@]6(C)CC[C@H](OC7OC(C(=O)O)C(O)C(OC8OCC(O)C(O)C8O)C7OC7OC(CO)C(O)C(O)C7O)[C@@](C)(/C=N/NC(=O)CCCCCN7C(=O)C=CC7=O)C6CC[C@@]5(C)[C@]3(C)C[C@H]4O)C(OC3OC(C)C(OC4OCC(O)C(OC5OC(CO)C(O)C(O)C5O)C4O)C(O)C3O)C2O)C(O)C1OC1OCC(O)C(O)C1O` (stereo partly drawn) [SO1861-EMCH], the “cell killing activity / saporin gene delivery, K16C npSaporin polyplexes” value in the test on EGFR+ A431 cells (K16C alone up to about 5000 μM of plasmids (printed), SO1861-EMCH = free, co-administered with K16C-polyplexes) is given as “enhanced cell killing activity”. The “cytoplasmic delivery of npSaporin / cell killing” value in the test on EGFR+ A431 cells (co-administered with PAMAM G5(PEG-N3)6.2 npSaporin polyplexes, 73 nM Cetuximab-SO1861 or 4 μM SO1861-EMCH, 72 h) is “strongly enhanced the cytoplasmic delivery of npSaporin”; with EGFR-A2058 cells, “strongly enhanced the cytoplasmic delivery of npSaporin”.
